This note sets out measurements from patent US20180201609A1 (AURIGENE DISCOVERY TECHNOLOGIES LIMITED, priority 2015, published 2018).

Where a name gives a salt, the structure may show the parent alone.

The experiment deals with T1, IRAK-4 enzyme (Homo sapiens, UniProt Q9NWZ3).
T1 construct: purchased Millipore, USA
T1 sequence (Q9NWZ3 1-460): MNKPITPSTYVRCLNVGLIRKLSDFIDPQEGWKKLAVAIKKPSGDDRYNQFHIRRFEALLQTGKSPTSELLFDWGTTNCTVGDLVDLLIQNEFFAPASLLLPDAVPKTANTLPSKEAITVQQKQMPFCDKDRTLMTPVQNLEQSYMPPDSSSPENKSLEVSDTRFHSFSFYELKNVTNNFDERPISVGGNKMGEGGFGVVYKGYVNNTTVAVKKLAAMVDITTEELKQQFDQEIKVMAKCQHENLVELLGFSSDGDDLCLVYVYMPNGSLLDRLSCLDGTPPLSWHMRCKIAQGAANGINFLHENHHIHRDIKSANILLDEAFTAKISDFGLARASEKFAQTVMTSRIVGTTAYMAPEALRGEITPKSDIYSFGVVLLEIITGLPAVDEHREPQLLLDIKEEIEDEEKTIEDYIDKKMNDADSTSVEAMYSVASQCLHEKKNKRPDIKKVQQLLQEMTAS
Put plainly: IRAK-4 Biochemical Assay (TR-FRET). As to conditions: recombinant IRAK-4 kinase, 20 μM ATP; for inhibition at 0.1 µM: 0.1 μM compound; for inhibition at 1 µM: 1 μM compound. As for the experimental part: Compounds were tested for their potential to inhibit IRAK-4 enzyme in a TR-FRET assay using recombinant IRAK-4 kinase from Millipore, USA. The assay buffer was 50 mM Tris-HCl pH 7.5, 20 mM MgCl2, 1 mM EGTA, 2 mM DTT, 3 mM MnCl2 and 0.01% Tween 20.5 ng of IRAK-4 kinase was used for the assay. After pre-incubation of enzyme with test compound for 30 minutes at room temperature, a substrate mixture containing 100 nM Biotin Histone H3 (Millipore, USA) and 20 μM ATP (Sigma, USA) was added and the reaction was incubated for 30 min. Post incubation, the reaction was stopped by the addition of stop mix containing 40 mM EDTA, 1 nM of Europium-Anti-Phospho-Histone H3 (Ser10) antibody (Perkin Elmer, USA) and 20 nM SureLight Allophycocyanin-Streptavidin (Perkin Elmer, USA). The fluorescence emission at 615 nm and 665 nm were measured at an excitation of 340 nm and the percent inhibition was estimated from the ratio of the fluorescence intensities [(F665/F615)×10000].
The compounds of the present invention were screened in the above mentioned assay and the percent inhibition data is summarized in the Table 1.
(In general: Time-resolved FRET reads energy transfer from a long-lived donor to a nearby acceptor.)

One may read the inhibition as the relative decrease from the control value, in per cent. For `Cn1cc2cc(NC(=O)c3ccc(N4CCC(O)C4)cn3)c(N3CCCCC3)cc2n1` (centres unmarked) [Example 73, 5-(3-hydroxypyrrolidin-1-yl)-N-(2-methyl-6-(piperidin-1-yl)-2H-indazol-5-yl)picolinamide], the inhibition at 0.1 µM worked out at 10% and the inhibition at 1 µM turned out to be 51%.

In the case of `COCCn1ncc2cc(NC(=O)c3coc(-c4ccnc(C)c4)n3)c(N3CCC(O)CC3)nc21` [Example 25, N-(6-(4-hydroxypiperidin-1-yl)-1-(2-methoxyethyl)-1H-pyrazolo[3,4-b]pyridin-5-yl)-2-(2-methylpyridin-4-yl)oxazole-4-carboxamide], the inhibition at 0.1 µM was found to be 67% and the inhibition at 1 µM was 97%.

Turning to `Cn1cc2cc(NC(=O)c3cc(N4CCC(O)C4)ccn3)c(C3CC3)cc2n1` (centres unmarked) [Example 71, N-(6-cyclopropyl-2-methyl-2H-indazol-5-yl)-4-(3-hydroxypyrrolidin-1-yl)picolinamide hydrochloride], the inhibition at 0.1 µM came out at 67% and the inhibition at 1 µM was determined as 95%.

`Cn1cc2cc(NC(=O)c3ccnc(N4CCC(O)C4)n3)c(N3CCCCC3)cc2n1` (centres unmarked) [Example 63, 2-(3-hydroxypyrrolidin-1-yl)-N-(2-methyl-6-(piperidin-1-yl)-2H-indazol-5-yl)pyrimidine-4-carboxamide]: the inhibition at 0.1 µM is 79% and the inhibition at 1 µM came out at 96%.

Take `O=C(Nc1cc2cn(C3CCNCC3)nc2cc1C1CC1)c1cccc(N2CCC(O)C2)n1` (centres unmarked) [Example 54, N-(6-cyclopropyl-2-(piperidin-4-yl)-2H-indazol-5-yl)-6-(3-hydroxypyrrolidin-1-yl)picolinamide hydrochloride]: the inhibition at 0.1 µM amounted to 95% and the inhibition at 1 µM was 96%.

Take `Cn1cc2cc(NC(=O)c3coc(N4CC[C@H](N)C4)n3)c(N3CCCCC3)nc2n1` [Example 17, (S)-2-(3-aminopyrrolidin-1-yl)-N-(2-methyl-6-(piperidin-1-yl)-2H-pyrazolo[3,4-b]pyridin-5-yl)oxazole-4-carboxamide]: the inhibition at 1 µM came to 90%.

On to `Cc1nn(C)c2cc(N3CCC(COCC4CC4)CC3)c(NC(=O)c3coc(-c4ccnc(N)c4)n3)cc12` [Example 36, 2-(2-aminopyridin-4-yl)-N-(6-(4-((cyclopropylmethoxy)methyl)piperidin-1-yl)-1,3-dimethyl-1H-indazol-5-yl)oxazole-4-carboxamide], for which the inhibition at 0.1 µM was 81% and the inhibition at 1 µM is 85%.

In the case of `Cn1cc2cc(NC(=O)c3cccc(-c4cccc(N)n4)n3)c(C3CC3)cc2n1` [Example 51, 6′-amino-N-(6-cyclopropyl-2-methyl-2H-indazol-5-yl)[2,2′-bipyridine]-6-carboxamide hydrochloride], the inhibition at 0.1 µM amounted to 57% and the inhibition at 1 µM was 92%.

As for `Cn1cc2cc(NC(=O)c3cccc(-c4ccc(N)nc4)n3)c(N3CCCCC3)cc2n1` [Example 44, 6′-amino-N-(2-methyl-6-(piperidin-1-yl)-2H-indazol-5-yl)-[2,3′-bipyridine]-6-carboxamide], the inhibition at 0.1 µM was 98% and the inhibition at 1 µM is 97%.

Take `C[C@H](O)Cn1cc(-c2cccc(C(=O)Nc3cc4cn(C)nc4nc3N3CCCCC3)n2)cn1` [Example 19, (S)-6-(1-(2-hydroxypropyl)-1H-pyrazol-4-yl)-N-(2-methyl-6-(piperidin-1-yl)-2H-pyrazolo[3,4-b]pyridin-5-yl)picolinamide]: the inhibition at 1 µM came to 96%.

For the compound `Cc1cc(-c2nc(C(=O)Nc3cc4cnn(C)c4nc3N3CC[C@H](O)C3)co2)ccn1` [Example 23, (S)—N-(6-(3-hydroxypyrrolidin-1-yl)-1-methyl-1H-pyrazolo[3,4-b]pyridin-5-yl)-2-(2-methylpyridin-4-yl)oxazole-4-carboxamide], the inhibition at 1 µM was found to be 33%.

With `Cc1cnccc1-c1nc(C(=O)Nc2cc3cn(C)nc3nc2N2CC[C@H](O)C2)co1` [Example 20, (S)—N-(6-(3-hydroxypyrrolidin-1-yl)-2-methyl-2H-pyrazolo[3,4-b]pyridin-5-yl)-2-(3-methylpyridin-4-yl)oxazole-4-carboxamide], the inhibition at 1 µM came out at 72%.
